These results are taken from ChEMBL document CHEMBL4152336, “Optimization of the first small-molecule relaxin/insulin-like family peptide receptor (RXFP1) agonists: Activation results in an antifibrotic gene expression profile” (Eur J Med Chem, 2018).

SMILES strings stand for the structures. Calls of active or inactive are those of the source. No cut-off for these calls is given here. Where only a bound is given, the exact number is not on record here.

One data set concerns the target T1, Relaxin receptor 1 (Homo sapiens, UniProt Q9HBX9).
T1 sequence (Q9HBX9 whole entry): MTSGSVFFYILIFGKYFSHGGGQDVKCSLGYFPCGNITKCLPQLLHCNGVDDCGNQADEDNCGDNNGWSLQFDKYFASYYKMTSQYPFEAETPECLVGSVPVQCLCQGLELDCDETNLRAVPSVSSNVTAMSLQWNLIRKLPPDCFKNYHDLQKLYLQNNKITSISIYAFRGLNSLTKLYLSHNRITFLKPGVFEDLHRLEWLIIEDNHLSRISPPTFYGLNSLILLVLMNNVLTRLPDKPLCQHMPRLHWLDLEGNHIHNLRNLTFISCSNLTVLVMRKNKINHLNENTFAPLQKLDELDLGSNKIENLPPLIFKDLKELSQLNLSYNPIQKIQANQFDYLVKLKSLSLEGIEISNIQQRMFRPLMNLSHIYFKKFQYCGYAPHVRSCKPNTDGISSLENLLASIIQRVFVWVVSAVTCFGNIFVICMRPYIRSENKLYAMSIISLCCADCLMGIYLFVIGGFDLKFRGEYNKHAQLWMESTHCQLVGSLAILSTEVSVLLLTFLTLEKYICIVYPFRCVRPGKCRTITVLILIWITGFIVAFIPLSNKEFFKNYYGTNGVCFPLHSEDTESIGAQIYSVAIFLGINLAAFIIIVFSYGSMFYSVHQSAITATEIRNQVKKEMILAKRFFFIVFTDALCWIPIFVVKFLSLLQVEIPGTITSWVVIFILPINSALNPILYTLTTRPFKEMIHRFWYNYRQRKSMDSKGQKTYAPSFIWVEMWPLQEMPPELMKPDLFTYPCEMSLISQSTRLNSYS
The class given is functional, cell-based, HEK293.

In data set [1] the target is T2, Relaxin receptor 1 (Homo sapiens) (UniProt Q9HBX9).
T2 sequence (whole entry): T1 sequence (Q9HBX9 whole entry)
Format: functional, cell-based. To be noted: HEK293.

The conditions of data set [2]: rat, microsomes.
Description: Half life in rat liver microsomes

In general, EC50 refers to the concentration giving half of the maximal effect. Take `O=C(Nc1cccc(C(F)(F)F)c1)c1ccccc1NC(=O)C1CC1`: at Relaxin receptor 1 (read-out: EC50), the EC50 was 8.38 µM. The compound also yielded an Efficacy in data set [1] of 79%.

`CC(C)Oc1ccccc1C(=O)Nc1ccccc1C(=O)Nc1cccc(C(F)(F)F)c1`: at Relaxin receptor 1 (read-out: EC50), the EC50 worked out at 0.471 µM. Further, the Efficacy in data set [1] worked out at 99%.

In the case of `CC(C)(C)c1cccc(NC(=O)c2ccccc2NC(=O)C2CCCCC2)c1`, at Relaxin receptor 1 (read-out: EC50), the concentration for a half-maximal effect (EC50) was 2.66 µM. Also, the Efficacy in data set [1] came out at 70%.

On to `O=C(Nc1cccc(C(F)(F)F)c1)c1ccccc1NC(=O)c1ccccc1OC(F)(F)F`, for which the EC50 at Relaxin receptor 1 (read-out: EC50) was 1.18 µM. Further, the Efficacy in data set [1] stood at 96%.

For `O=C(NCc1cccc(C(F)(F)F)c1)c1ccccc1NC(=O)C1CCCCC1`, on Relaxin receptor 1 (hek293), the EC50 result is “Not Active”. The Efficacy entry in data set [1] was “inactive”.

For `O=C(Nc1cccc(C(F)(F)F)c1)c1ccccc1NC(=O)C1CCCC1`, the concentration for a half-maximal effect (EC50) at Relaxin receptor 1 (read-out: EC50) amounted to 2.36 µM. Besides, in data set [1], the Efficacy is 88%.

Take `O=C(Nc1ccccc1C(=O)Nc1cccc(C(F)(F)F)c1)c1ccccc1`: the EC50 on Relaxin receptor 1 (read-out: EC50) is 1.32 µM. In addition, the Efficacy in data set [1] was 64%.

`O=C(Nc1ccccc1C(=O)Nc1cccc(C(F)(F)F)c1)c1ccccc1Cl`: the EC50 on Relaxin receptor 1 (read-out: EC50) amounted to 3.74 µM. The Efficacy in data set [1] turned out to be 92%.

For the compound `O=C(Nc1ccccc1C(=O)Nc1cccc(C(F)(F)F)c1)c1cccnc1`, the EC50 on Relaxin receptor 1 (read-out: EC50) was 5.93 µM. In data set [1], this compound yielded an Efficacy of 95%.

In the case of `COc1ccccc1C(=O)N(C)c1ccccc1C(=O)Nc1cccc(C(F)(F)F)c1`, the EC50 result at Relaxin receptor 1 (hek293) is “Not Active”. Also, the Efficacy entry in data set [1] is “inactive”.

Consider `O=C(Nc1cccc(F)c1)c1ccccc1NC(=O)C1CCCCC1`, for which the concentration giving a half-maximal response (EC50) on Relaxin receptor 1 (read-out: EC50) stood at 13.3 µM. Also, the Efficacy in data set [1] was found to be 81%.

For `COc1cccc(OC)c1C(=O)Nc1ccccc1C(=O)Nc1cccc(C(F)(F)F)c1`, the EC50 on Relaxin receptor 1 (read-out: EC50) worked out at 7.47 µM. The same compound displayed an Efficacy in data set [1] of 42%.

Consider `COc1ccccc1C(=O)Nc1ccccc1C(=O)Nc1cccc(S(=O)(=O)C(F)(F)F)c1`, for which the EC50 on Relaxin receptor 1 (read-out: EC50) was found to be 0.188 µM. In addition, the t1/2 in data set [2] was more than 30 min. The compound further registered an Efficacy in data set [1] of 99%.

Consider `Cc1ccccc1C(=O)Nc1ccccc1C(=O)Nc1cccc(C(F)(F)F)c1`, for which, at Relaxin receptor 1 (read-out: EC50), the 50% effective concentration (EC50) came to 4.2 µM. This compound returned an Efficacy in data set [1] of 90%.

For the compound `COc1cccc(NC(=O)c2ccccc2NC(=O)C2CCCCC2)c1`, on Relaxin receptor 1 (read-out: EC50), the EC50 came out at 37.4 µM. For the same compound, the Efficacy in data set [1] came to 74%.

`O=C(Nc1cccc(-c2ccccc2)c1)c1ccccc1NC(=O)C1CCCCC1`: the EC50 result on Relaxin receptor 1 (hek293) is reported as “Not Active”. Further, in data set [1], the Efficacy result was “inactive”.

For `O=C(Nc1cccc(C(F)(F)F)c1)c1ccccc1NC(=O)C1CCC1`, the EC50 at Relaxin receptor 1 (read-out: EC50) came to 2.97 µM. The compound also showed an Efficacy in data set [1] of 75%.

`O=C(NCc1ccco1)c1ccccc1NC(=O)c1ccccc1NC(=O)C1CCCCC1`: the 50% effective concentration (EC50) on Relaxin receptor 1 (read-out: EC50) came to 9.4 µM. This compound also came in with an Efficacy in data set [1] of 45%.

As for `COc1ccc(C(=O)Nc2ccccc2C(=O)Nc2cccc(C(F)(F)F)c2)cc1`, the concentration for a half-maximal effect (EC50) at Relaxin receptor 1 (read-out: EC50) was found to be 9.4 µM. Further, the Efficacy in data set [1] came to 71%.

In the case of `CSc1cccc(NC(=O)c2ccccc2NC(=O)C2CCCCC2)c1`, the EC50 at Relaxin receptor 1 (read-out: EC50) is 5.29 µM. For the same compound, the Efficacy in data set [1] came to 84%.

Turning to `CCOc1ccccc1S(=O)(=O)Nc1ccccc1C(=O)Nc1cccc(S(=O)(=O)C(F)(F)F)c1`, the EC50 entry on Relaxin receptor 1 (hek293) is on record as “Not Active”. Also, the Efficacy result in data set [1] was “inactive”.

With `O=C(Nc1cccc(C(F)(F)F)c1)c1ccccc1NC(=O)C1CCCCCC1`, the EC50 on Relaxin receptor 1 (read-out: EC50) was found to be 2.11 µM. In data set [1], this compound registered an Efficacy of 75%.

With `COCCNc1ccccc1C(=O)Nc1cccc(C(F)(F)F)c1`, the EC50 on Relaxin receptor 1 (read-out: EC50) amounted to 59.3 µM. Also, the Efficacy in data set [1] is 63%.

Consider `COc1ccccc1C(=O)Nc1ccccc1C(=O)Nc1cccc(C(F)(F)F)c1`, for which, on Relaxin receptor 1 (read-out: EC50), the EC50 turned out to be 0.334 µM. For the same compound, the Efficacy in data set [1] came to 99%.

As for `CCOc1ccccc1C(=O)Nc1ccncc1C(=O)Nc1cccc(S(=O)(=O)C(F)(F)F)c1`, on Relaxin receptor 1 (read-out: EC50), the EC50 came to 0.747 µM. The same compound came in with a t1/2 in data set [2] of more than 30 min. The same compound had an Efficacy in data set [1] of 97%.

As for `CCCCC(=O)Nc1ccccc1C(=O)Nc1cccc(C(F)(F)F)c1`, the EC50 at Relaxin receptor 1 (read-out: EC50) was determined as 5.29 µM. Besides, the Efficacy in data set [1] turned out to be 94%.

Regarding `COc1ccccc1C(=O)Nc1cccc(C(=O)Nc2cccc(C(F)(F)F)c2)c1`, the EC50 entry on Relaxin receptor 1 (hek293) is recorded as “Not Active”. For the same compound, the Efficacy result in data set [1] is “inactive”.

As to `O=C(Nc1cccc(Br)c1)c1ccccc1NC(=O)C1CCCCC1`, on Relaxin receptor 1 (read-out: EC50), the half-maximal effective concentration (EC50) is 2.65 µM. The compound further yielded an Efficacy in data set [1] of 91%.

Regarding `O=C(Nc1cccc(Cl)c1)c1ccccc1NC(=O)C1CCCCC1`, the EC50 at Relaxin receptor 1 (read-out: EC50) worked out at 3.34 µM. Also, in data set [1], the Efficacy was determined as 89%.

Turning to `O=C(Nc1ccccc1)c1ccccc1NC(=O)C1CCCCC1`, the EC50 at Relaxin receptor 1 (read-out: EC50) came out at 94 µM. The same compound returned an Efficacy in data set [1] of 57%.

As for `O=C(Nc1ccc(C(F)(F)F)cc1)c1ccccc1NC(=O)C1CCCCC1`, the half-maximal effective concentration (EC50) on Relaxin receptor 1 (read-out: EC50) came to 94 µM. In addition, the Efficacy in data set [1] was determined as 46%.

Turning to `CCOc1ccccc1C(=O)Nc1ccccc1C(=O)Nc1cccc(S(=O)(=O)C(F)(F)F)c1`, the t1/2 in data set [2] is recorded as more than 30 min.

Turning to `O=C(Cc1ccccc1)Nc1ccccc1C(=O)Nc1cccc(C(F)(F)F)c1`, the concentration giving a half-maximal response (EC50) at Relaxin receptor 1 (read-out: EC50) is 8.38 µM. The compound also yielded an Efficacy in data set [1] of 86%.

For `CCOc1ccccc1C(=O)Nc1sccc1C(=O)Nc1cccc(S(=O)(=O)C(F)(F)F)c1`, the EC50 at Relaxin receptor 1 (read-out: EC50) came to 2.36 µM. Besides, in data set [1], the Efficacy amounted to 95%.

Turning to `COc1ccccc1C(=O)Nc1ccccc1C(=O)N(C)c1cccc(C(F)(F)F)c1`, the EC50 at Relaxin receptor 1 (read-out: EC50) worked out at 29.7 µM. Besides, in data set [1], the Efficacy was determined as 77%.

As for `O=C(Nc1cccc([N+](=O)[O-])c1)c1ccccc1NC(=O)C1CCCCC1`, on Relaxin receptor 1 (read-out: EC50), the EC50 was 5.93 µM. The compound further returned an Efficacy in data set [1] of 93%.

For the compound `O=C(Nc1cccc(SC(F)(F)F)c1)c1ccccc1NC(=O)C1CCCCC1`, the EC50 on Relaxin receptor 1 (read-out: EC50) amounted to 1.88 µM. Besides, the Efficacy in data set [1] was 90%.

As for `Cc1ccccc1NC(=O)c1ccccc1NC(=O)C1CCCCC1`, on Relaxin receptor 1 (hek293), the EC50 entry is reported as “Not Active”. Further, the Efficacy result in data set [1] was “inactive”.

Take `COCCOc1ccccc1C(=O)Nc1ccccc1C(=O)Nc1cccc(C(F)(F)F)c1`: the EC50 at Relaxin receptor 1 (read-out: EC50) turned out to be 0.747 µM. Also, the Efficacy in data set [1] stood at 98%.

As for `CN(C)CCOc1ccccc1C(=O)Nc1ccccc1C(=O)Nc1cccc(C(F)(F)F)c1`, the half-maximal effective concentration (EC50) on Relaxin receptor 1 (read-out: EC50) was 3.74 µM. Further, the Efficacy in data set [1] was 92%.

For the compound `O=C(Nc1cccc(S(=O)(=O)C(F)(F)F)c1)c1ccccc1NC(=O)C1CCCCC1`, on Relaxin receptor 1 (read-out: EC50), the EC50 was 1.06 µM. The Efficacy in data set [1] is 87%.

With `O=C(Nc1cccc(-c2ccccc2C(F)(F)F)c1)c1ccccc1NC(=O)C1CCCCC1`, the EC50 on Relaxin receptor 1 (read-out: EC50) turned out to be 2.65 µM. Also, in data set [1], the Efficacy came out at 74%.

In the case of `CCOc1ccccc1C(=O)Nc1ccccc1C(=O)Nc1cccc(C(F)(F)F)c1`, the EC50 on Relaxin receptor 1 (read-out: EC50) was determined as 0.265 µM. Further, in data set [1], the Efficacy is 94%.

`O=C(Nc1cccc(-c2cccc(C(F)(F)F)c2)c1)c1ccccc1NC(=O)C1CCCCC1`: the EC50 result at Relaxin receptor 1 (hek293) is reported as “Not Active”. In data set [1], the Efficacy result is “inactive”.

With `COc1cccc(C(=O)Nc2ccccc2C(=O)Nc2cccc(C(F)(F)F)c2)c1`, on Relaxin receptor 1 (read-out: EC50), the EC50 worked out at 1.88 µM. In data set [1], the Efficacy is 94%.

`CCC(CC)C(=O)Nc1ccccc1C(=O)Nc1cccc(C(F)(F)F)c1`: at Relaxin receptor 1 (read-out: EC50), the EC50 came out at 5.29 µM. In data set [1], this compound registered an Efficacy of 59%.

Regarding `Cc1ccc(NC(=O)c2ccccc2NC(=O)C2CCCCC2)cc1`, the EC50 at Relaxin receptor 1 (read-out: EC50) is 187 µM. This compound showed an Efficacy in data set [1] of 32%.

Turning to `O=C(Nc1cccc(S(=O)(=O)C(F)(F)F)c1)c1ccccc1NC(=O)c1ccccc1OCC(F)(F)F`, the EC50 at Relaxin receptor 1 (read-out: EC50) was 0.067 µM. The t1/2 in data set [2] is reported as more than 30 min. Moreover, the Efficacy in data set [1] is 97%.
